In paper PMC7211202 (Investigational New Drugs, 2019):
Read-outs that look alike come from different tables or passages of the source.

Assay: Plasma AMG 232 pharmacokinetics (HPLC-MS, non-compartmental analysis)
Type: in vivo, human
Conditions: for AUC(0-t) / Cmax / Tmax / Vd/F: human, plasma, oral; for AUC(0-t): read-out: AUC24h, mean (SD); for Cmax: read-out: Cmax, mean (SD); for Tmax: read-out: tmax, median (range); for Vd/F: read-out: Vz/F, mean (SD)
Protocol: Non-compartmental analysis was performed using WinNonlin Professional software, version 6.3. Parameters were summarized descriptively.

[1] = 15 mg, Day 1, dose escalation, 15 mg (n = 3)
[2] = 15 mg, Day 7, dose escalation, 15 mg (n = 3)
[3] = 30 mg, Day 1, dose escalation, 30 mg (n = 3)
[4] = 30 mg, Day 7, dose escalation, 30 mg (n = 3)
[5] = 60 mg, Day 1, dose escalation, 60 mg (n = 2–4)
[6] = 60 mg, Day 7, dose escalation, 60 mg (n = 2–4)
[7] = 120 mg, Day 1, dose escalation, 120 mg (n = 4–7)
[8] = 120 mg, Day 7, dose escalation, 120 mg (n = 4–7)
[9] = 240 mg, Day 1, 240-mg dose expansion, DDLPS (n = 6–10)
[10] = 240 mg, Day 1, 240-mg dose expansion, ER + PR+ Breast (n = 6–8)
[11] = 240 mg, Day 1, 240-mg dose expansion, ER + PR– Breast (n = 4)
[12] = 240 mg, Day 1, 240-mg dose expansion, GBM (n = 6–9)
[13] = 240 mg, Day 1, 240-mg dose expansion, Multiple Myeloma (n = 7–10)
[14] = 240 mg, Day 1, 240-mg dose expansion, Other Solid (n = 9–16)
[15] = 240 mg, Day 1, 240-mg dose expansion, Total (n = 47–67)
[16] = 240 mg, Day 1, 240-mg dose expansion, WDLPS (n = 9–10)
[17] = 240 mg, Day 1, Parts 1 and 2, 240 mg (n = 54–75)
[18] = 240 mg, Day 1, dose escalation, 240 mg (n = 7–8)
[19] = 240 mg, Day 7, 240-mg dose expansion, DDLPS (n = 6–10)
[20] = 240 mg, Day 7, 240-mg dose expansion, ER + PR+ Breast (n = 6–8)
[21] = 240 mg, Day 7, 240-mg dose expansion, ER + PR– Breast (n = 4)
[22] = 240 mg, Day 7, 240-mg dose expansion, GBM (n = 6–9)
[23] = 240 mg, Day 7, 240-mg dose expansion, Multiple Myeloma (n = 7–10)
[24] = 240 mg, Day 7, 240-mg dose expansion, Other Solid (n = 9–16)
[25] = 240 mg, Day 7, 240-mg dose expansion, Total (n = 47–67)
[26] = 240 mg, Day 7, 240-mg dose expansion, WDLPS (n = 9–10)
[27] = 240 mg, Day 7, Parts 1 and 2, 240 mg (n = 54–75)
[28] = 240 mg, Day 7, dose escalation, 240 mg (n = 7–8)
[29] = 300 mg, Day 1, dose escalation, 300 mg (n = 3–4)
[30] = 300 mg, Day 7, dose escalation, 300 mg (n = 3–4)
[31] = 360 mg, Day 1, dose escalation, 360 mg (n = 3–4)
[32] = 360 mg, Day 7, dose escalation, 360 mg (n = 3–4)
[33] = 480 mg, Day 1, dose escalation, 480 mg (n = 5–6)
[34] = 480 mg, Day 7, dose escalation, 480 mg (n = 5–6)

CC(C)[C@@H](CS(=O)(=O)C(C)C)N1C(=O)[C@@](C)(CC(=O)O)C[C@H](c2cccc(Cl)c2)[C@H]1c1ccc(Cl)cc1 [AMG 232]
Dose proportionality of plasma concentrations (15–480 mg QD for 7 days Q3W): increased generally dose proportionally | AUC(0-t) [1]: 884 ng·h/mL | Cmax [1]: 169 ng/mL | Tmax [1]: 3.1 h | AUC(0-t) [2]: 949 ng·h/mL | Cmax [2]: 130 ng/mL | Vd/F [2]: 497 L | Tmax [2]: 3.1 h | AUC(0-t) [3]: 1960 ng·h/mL | Cmax [3]: 255 ng/mL | Tmax [3]: 3 h | AUC(0-t) [4]: 2830 ng·h/mL | Cmax [4]: 259 ng/mL | Tmax [4]: 3 h | AUC(0-t) [5]: 2950 ng·h/mL | Cmax [5]: 527 ng/mL | Tmax [5]: 3 h | AUC(0-t) [6]: 4000 ng·h/mL | Cmax [6]: 457 ng/mL | Vd/F [6]: 360 L | Tmax [6]: 4 h | AUC(0-t) [7]: 5160 ng·h/mL | Cmax [7]: 599 ng/mL | Tmax [7]: 3 h | AUC(0-t) [8]: 8940 ng·h/mL | Cmax [8]: 868 ng/mL | Vd/F [8]: 664 L | Tmax [8]: 3 h | AUC(0-t) [9]: 8010 ng·h/mL | Cmax [9]: 986 ng/mL | Tmax [9]: 2 h | AUC(0-t) [10]: 9660 ng·h/mL | Cmax [10]: 1920 ng/mL | Tmax [10]: 2.8 h | AUC(0-t) [11]: 9430 ng·h/mL | Cmax [11]: 1360 ng/mL | Tmax [11]: 2.1 h | AUC(0-t) [12]: 5360 ng·h/mL | Cmax [12]: 978 ng/mL | Tmax [12]: 3 h | Cmax [13]: 1320 ng/mL | Tmax [13]: 2 h | AUC(0-t) [14]: 10800 ng·h/mL | Cmax [14]: 1670 ng/mL | Tmax [14]: 3 h | AUC(0-t) [15]: 8830 ng·h/mL | Cmax [15]: 1390 ng/mL | Tmax [15]: 3 h | AUC(0-t) [16]: 9260 ng·h/mL | Cmax [16]: 1350 ng/mL | Tmax [16]: 3.1 h | AUC(0-t) [17]: 8480 ng·h/mL | Cmax [17]: 1350 ng/mL | Tmax [17]: 3 h | AUC(0-t) [18]: 5690 ng·h/mL | Cmax [18]: 1030 ng/mL | Tmax [18]: 2 h | AUC(0-t) [19]: 10800 ng·h/mL | Cmax [19]: 1050 ng/mL | Vd/F [19]: 537 L | Tmax [19]: 3 h | Cmax [20]: 1350 ng/mL | Vd/F [20]: 689 L | Tmax [20]: 2.8 h | AUC(0-t) [21]: 9960 ng·h/mL | Cmax [21]: 1620 ng/mL | Vd/F [21]: 814 L | Tmax [21]: 1 h | AUC(0-t) [22]: 9210 ng·h/mL | Cmax [22]: 988 ng/mL | Vd/F [22]: 1010 L | Tmax [22]: 2.8 h | AUC(0-t) [23]: 8450 ng·h/mL | Cmax [23]: 1190 ng/mL | Vd/F [23]: 859 L | Tmax [23]: 1.1 h | AUC(0-t) [24]: 17200 ng·h/mL | Cmax [24]: 2200 ng/mL | Vd/F [24]: 353 L | Tmax [24]: 2.9 h | AUC(0-t) [25]: 12300 ng·h/mL | Cmax [25]: 1420 ng/mL | Vd/F [25]: 627 L | Tmax [25]: 2.8 h | AUC(0-t) [26]: 15700 ng·h/mL | Cmax [26]: 1230 ng/mL | Vd/F [26]: 389 L | Tmax [26]: 3 h | AUC(0-t) [27]: 12100 ng·h/mL | Cmax [27]: 1440 ng/mL | Vd/F [27]: 613 L | Tmax [27]: 2.9 h | AUC(0-t) [28]: 10600 ng·h/mL | Cmax [28]: 1560 ng/mL | Vd/F [28]: 523 L | Tmax [28]: 3 h | AUC(0-t) [29]: 14700 ng·h/mL | Cmax [29]: 1740 ng/mL | Tmax [29]: 3 h | AUC(0-t) [30]: 25000 ng·h/mL | Cmax [30]: 2090 ng/mL | Vd/F [30]: 762 L | Tmax [30]: 3.1 h | AUC(0-t) [31]: 15800 ng·h/mL | Cmax [31]: 2380 ng/mL | Tmax [31]: 2 h | AUC(0-t) [32]: 15500 ng·h/mL | Cmax [32]: 2050 ng/mL | Vd/F [32]: 423 L | Tmax [32]: 2 h | AUC(0-t) [33]: 18800 ng·h/mL | Cmax [33]: 2630 ng/mL | Tmax [33]: 3 h | AUC(0-t) [34]: 18400 ng·h/mL | Cmax [34]: 1750 ng/mL | Vd/F [34]: 585 L | Tmax [34]: 3.1 h | Vd/F (Day 7, Parts 1 and 2, All Doses (n = 76–97)): 615 L
